# According to patent publication US7217735B1, “Methods and compositions for enhancing delivery of therapeutic agents to tissues” (priority 1999, dated 2007):
# Read-outs that look alike come from different tables or passages of the source. Marks after values point to notes of the source that are not given here.
# What was measured:
# [1] = test system: Pgp-positive patient tumors; assay: Paclitaxel accumulation by Pgp status; assay type: in vitro ADME, human; settings: 12,000 nM
# Method: The expression of Pgp was measured by immunohistochemical methods, using procedures described previously (Toth K et al. (1994) Am J Pathol 144:227–236). Briefly, tissue sections were de-waxed and rehydrated sequentially in xylene, ethanol and water. Tissue sections were boiled in a 0.1 M citrate buffer, pH 6.0, in a microwave oven, then cooled and washed in phosphate-buffered saline (PBS). The tissue sections were incubated with Dako blocking solution for 10 min and subsequently with the following antibody solutions for 2 hr: a mouse anti-human Pgp antibody (JSB-1, 1:200 dilution) and a rabbit antihuman Pgp polyclonal antibody (ab-1, 1:100 dilution). […] The incubation was carried out in a humidified chamber at room temperature. The antibodies were diluted in PBS containing 5 mg/ml bovine serum albumin. For negative controls, we used mouse IgG as the primary antibody. […] After washing with PBS, the tissue sections were covered with the linker solution, and then with peroxidase-conjugated streptavidin solution. After washing twice with PBS, tissue sections were incubated for 5 to 7 minutes with diaminobenzidine and counterstained with hematoxylin.
# The statistical significance of the differences between groups was analyzed by the two-tailed unpaired Student's t-test.
# [2] = test system: patient head and neck tumors; assay: Paclitaxel efflux from tumor histocultures
# Method: (§4) The specimens were washed with culture medium for three times and dissected into about 1 mm^3 fragments under sterile conditions. The culture medium consisted of a 1:1 mixture of MEM/DMEM for patient tumors, MEM for FaDu xenografts, and RPMI1640 for PC3 xenografts, supplemented with 9% heat-inactivated FBS, 2 mM glutamine, 0.1 mM non-essential amino acids (only for MEM/DMEM), 90:g/ml gentamicin and 90:g/ml cefotaxime sodium. Five histoculture fragments were placed on a 1 cm^2 piece of presoaked collagen gel and incubated with 4 ml culture medium in 6-well plates. After 2 to 4 days, tumor histocultures were used to study the kinetics of drug penetration.
# (§5) At predetermined times, 100 μl of medium was taken from each well and the histocultures were removed from the plates. The histocultures were blot-dried on a filter paper and their weights were measured. One hundred 1 of medium or tumor samples were mixed with 0.5 ml of Solvable tissue/gel solubilizer, incubated at 50° C. in an oven overnight, and analyzed for total radioactivity using liquid scintillation counting. […] Drug concentration in tissue was calculated as (drug amount) divided by (tissue weight) and was expressed in molar terms.
# (§6) The study design of experiments using patient tumors was dictated by the size of the specimens. On some occasions, specimens from an individual patient were only sufficient to study drug uptake and efflux at one or more but not all drug concentrations. A total of 7 head and neck tumors and 3 ovarian tumors were used. For the FaDu xenograft tumor, specimens from individual animals were sufficiently large that each tumor was used for studying uptake and efflux at all four drug concentrations.
# After replacing the drug-containing medium with drug-free medium, the drug concentration remaining in histocultures at 24 and 72 hours post-treatment were analyzed to determine the time to reach 50% of the pseudo steady state level (T1/2,efflux). The statistical significance of the differences among patient (head and neck and ovarian, n=6) and FaDu (n=3) tumors, at equal initial medium concentrations, were analyzed using a unpaired t-test.
# patient ovarian tumors [3] = assay: Paclitaxel efflux from tumor histocultures; assay type: in vitro ADME, human
# [4] = test system: patient head and neck tumors; assay: Paclitaxel uptake in tumor histocultures
# Method: as §4
# This study was performed using head and neck tumors from human patients and the human pharynx FaDu xenograft tumors maintained in athymic mice.
# as §5, §6
# (§7) The statistical significance of the differences among patient (head and neck and ovarian, n=6) and FaDu (n=3) tumors, at equal initial medium concentrations, were analyzed by the two-tailed unpaired Student's t-test.
# [5] = test system: patient and xenograft tumors; assay: Paclitaxel efflux from tumor histocultures, all three tumor types
# Method: as §4, §5
# The study design of experiments using patient tumors was dictated by the size of the specimens. […]
# FaDu xenograft tumors [6] = assay: Paclitaxel uptake in tumor histocultures
# Source text: FaDu cells were obtained from American Type Culture Collection (Rockville, Mass.). MCF7 cells were obtained from Dr. Kenneth Cowan at the National Cancer Institute. Cells were harvested from subconfluent cultures using trypsin and resuspended in fresh medium before plating. Cells with greater than 90% viability, as determined by trypan blue exclusion, were used for tumor implantation. Cells were centrifuged and resuspended in Matrigel (1:1 v/v). […] The tumor establishment was achieved by subcutaneously injecting 10^6 cells (0.1–0.2 ml) with a 18 gauge needle at left and right sides of the upper back. The tumor was removed when it reached a size of 0.5 to 1 g and used for experiments.
# as §4, §5
# For the FaDu xenograft tumor, specimens from individual animals were sufficiently large that each tumor was used for studying uptake and efflux at all four drug concentrations.
# FaDu xenograft tumors [7] = assay: Paclitaxel efflux from tumor histocultures; assay type: in vitro ADME, human
# patient ovarian tumors [8] = assay: Paclitaxel uptake in tumor histocultures
# Method: as §4, §5, §6, §7
# MAT-LyLu prostate tumor = assay: Effect of pretreatment on paclitaxel accumulation in tumors, in vivo infusion; design: species or system Copenhagen rat
# Source text: (§1) Experiments were initiated when the tumor was between 0.3 to 0.5 g in size.
# (§2) The jugular vein and carotid artery of tumor-bearing rats were catheterized, under light ether anesthesia, with polyethylene tubing (PE-50, Becton Dickinson Co., Sparks, Md.) for drug administration and for blood sampling, respectively. Each catheter was exteriorized to the dorsal side of the neck and attached to a second polyethylene tubing (PE-50), respectively. The catheters and tubings were covered with a metal coil tubing. […] Blood samples (0.12 or 0.22 ml) were obtained at predetermined times. Plasma fraction was obtained by centrifugation at 2,000 g for 3 min, and stored at −70° C. for HPLC analysis. At the end of the experiment, tumors were harvested. One quarter of a tumor was fixed in 10% neutralized formalin solution and processed for tissue morphology evaluation. Tumor cell density and the fraction of apoptotic cells were determined by counting the number of tumor cells and apoptotic cells in nonnecrotic regions at 400× magnification (5 microscopic fields/tumor). The remainder of the tumor was stored at […] until HPLC analysis for drug concentration.
# (§3) Preweighed tumors were homogenized, mixed with the internal standard, 100:1 cephalomanine (10:g/ml in methanol). The HPLC stationary phase consisted of a cleaning column (NovaPak C8, 75×3.9 mm ID, 4:m particle size, Waters Associates, Milford, Mass.) and an analytical column (Bakerbond Octadecyl, 250×4.6 mm ID, 5:m particle size, J. T. Baker, Phillipsburg, N.J.). Samples were injected onto the clean-up column and eluted with the clean-up mobile phase (37.5% acetonitrile in Water) at 1 ml/min.
# [9] = as above; design: species or system Copenhagen rat; settings: male, Copenhagen, rat; for Kp: tumor and plasma, intravenous, read-out: Tumor-to-plasma conc. ratio at end of Tx
# Source text: as §1, §2, §3
# [10] = initial Cmedium 120 nM for 24 hr, at 24 hr post-treatment
# [11] = initial Cmedium 120 nM for 24 hr, at 72 hr post-treatment
# [12] = initial Cmedium 1,200 nM for 24 hr
# [13] = initial Cmedium 1,200 nM for 24 hr, at 24 hr post-treatment
# [14] = initial Cmedium 1,200 nM for 24 hr, at 72 hr post-treatment
# [15] = Group 1: 5 mg/kg/hr x 1 hr, then 0.83 x 6 hr at 24 hr, total 10 mg/kg
# [16] = Group 2A: 5 mg/kg/hr x 1 hr at 0 hr, total 5 mg/kg, at 1 hr
# [17] = Group 2B: 5 mg/kg/hr x 1 hr at 0 hr, total 5 mg/kg, at 24 hr
# [18] = Group 3: 0.83 mg/kg/hr x 6 hr at 0 hr, total 5 mg/kg
# [19] = Group 4: 5 mg/kg/hr x 1 hr at 0 hr + 0.83 x 6 hr at 1.2 hr, total 10 mg/kg
# [20] = Group 5: 0.83 mg/kg/hr x 12 hr, total 10 mg/kg
smiles,measurement,setting,value
CC(=O)O[C@H]1C(=O)[C@@]2(C)[C@H]([C@H](OC(=O)c3ccccc3)[C@]3(O)C[C@H](OC(=O)[C@H](O)[C@@H](NC(=O)c4ccccc4)c4ccccc4)C(C)=C1C3(C)C)[C@]1(OC(C)=O)CO[C@@H]1C[C@@H]2O [paclitaxel],lower accumulation in Pgp-positive vs Pgp-negative patient tumors (average difference),[1],< 25%
same,"T1/2,efflux",[2]; initial Cmedium 120 nM for 24 hr,7.45 ± 3.02 h
same,% remaining in tumor,[2]; [10],54.8 ± 3.1%
same,Cmedium,[2]; [10],1.13 ± 0.17 nM
same,Ctumor,[2]; [10],1.70 ± :M
same,% remaining in tumor,[2]; [11],43.3 ± 16.3%
same,Cmedium,[2]; [11],1.32 ± 0.14 nM
same,Ctumor,[2]; [11],1.19 ± 0.50 :M
same,"T1/2,efflux",[2]; [12],3.33 ± 2.62 h
same,% remaining in tumor,[2]; [13],18.7 ± 6.2%
same,Cmedium,[2]; [13],7.69 ± 2.55 nM
same,Ctumor,[2]; [13],4.38 ± :M
same,% remaining in tumor,[2]; [14],16.0 ± 5.3%
same,Cmedium,[2]; [14],10.9 ± 1.1 nM
same,Ctumor,[2]; [14],4.17 ± 2.77 :M
same,% remaining in tumor,patient ovarian tumors [3]; [10],39.8 ± 14.2%
same,Cmedium,patient ovarian tumors [3]; [10],1.19 ± 0.24 nM
same,Ctumor,patient ovarian tumors [3]; [10],0.615 ± :M
same,% remaining in tumor,patient ovarian tumors [3]; [11],35.7 ± 18.5%
same,Cmedium,patient ovarian tumors [3]; [11],1.60 ± 0.26 nM
same,Ctumor,patient ovarian tumors [3]; [11],0.520 ± 0.196 :M
same,"T1/2,efflux",patient ovarian tumors [3]; [12],5.00 ± 2.93 h
same,% remaining in tumor,patient ovarian tumors [3]; [13],25.9 ± 8.3%
same,Cmedium,patient ovarian tumors [3]; [13],12.8 ± 3.41 nM
same,Ctumor,patient ovarian tumors [3]; [13],5.13 ± :M
same,% remaining in tumor,patient ovarian tumors [3]; [14],19.8 ± 6.6%
same,Cmedium,patient ovarian tumors [3]; [14],16.7 ± 2.9 nM
same,Ctumor,patient ovarian tumors [3]; [14],4.20 ± 1.79 :M
same,Mass balance,[4]; initial Cmedium 12 nM,91.2 ± 3.5%
same,Steady state Cmedium,[4]; initial Cmedium 12 nM,10.9 ± 1.0 nM
same,Mass balance,[4]; initial Cmedium 120 nM,83.8 ± 7.6%
same,Steady state Cmedium,[4]; initial Cmedium 120 nM,83.0 ± 0.7 nM
same,Steady state Ctumor,[4]; initial Cmedium 120 nM,5.77 ± 1.52 :M
same,Mass balance,"[4]; initial Cmedium 1,200 nM",87.5 ± 6.5%
same,Steady state Cmedium,"[4]; initial Cmedium 1,200 nM",925 ± 25 nM
same,Steady state Ctumor,"[4]; initial Cmedium 1,200 nM",22.0 ± 6.2 :M
same,Mass balance,"[4]; initial Cmedium 12,000 nM",91.5 ± 3.5%
same,Steady state Cmedium,"[4]; initial Cmedium 12,000 nM","9,870 ± 59 nM"
same,Steady state Ctumor,"[4]; initial Cmedium 12,000 nM",341 ± 125 :M
same,time at which drug concentration declined to pseudo steady state level,[5],48 h
same,Mass balance,FaDu xenograft tumors [6]; initial Cmedium 12 nM,92.5 ± 5.1%
same,Steady state Cmedium,FaDu xenograft tumors [6]; initial Cmedium 12 nM,9.09 ± 0.27 nM
same,Mass balance,FaDu xenograft tumors [6]; initial Cmedium 120 nM,86.5 ± 2.8%
same,Steady state Cmedium,FaDu xenograft tumors [6]; initial Cmedium 120 nM,89.7 ± 13.3 nM
same,Mass balance,"FaDu xenograft tumors [6]; initial Cmedium 1,200 nM",89.4 ± 5.7%
same,Steady state Cmedium,"FaDu xenograft tumors [6]; initial Cmedium 1,200 nM",887 ± 131 nM
same,Mass balance,"FaDu xenograft tumors [6]; initial Cmedium 12,000 nM",90.2 ± 5.4%
same,Steady state Cmedium,"FaDu xenograft tumors [6]; initial Cmedium 12,000 nM","8,910 ± 267 nM"
same,Cmedium,FaDu xenograft tumors [7]; [10],0.989 ± 0.228 nM
same,Ctumor,FaDu xenograft tumors [7]; [10],3.88 ± :M
same,Cmedium,FaDu xenograft tumors [7]; [11],1.42 ± 0.18 nM
same,Ctumor,FaDu xenograft tumors [7]; [11],3.84 ± 1.04 :M
same,Cmedium,FaDu xenograft tumors [7]; [13],12.2 ± 1.3 nM
same,Ctumor,FaDu xenograft tumors [7]; [13],23.2 ± :M
same,Cmedium,FaDu xenograft tumors [7]; [14],18.9 ± 5.5 nM
same,Ctumor,FaDu xenograft tumors [7]; [14],17.7 ± 3.7 :M
same,Mass balance,patient ovarian tumors [8]; initial Cmedium 12 nM,89.3 ± 5.4%
same,Steady state Cmedium,patient ovarian tumors [8]; initial Cmedium 12 nM,10.6 ± 0.7 nM
same,Steady state Ctumor,patient ovarian tumors [8]; initial Cmedium 12 nM,1.32 ± 0.31 :M
same,Mass balance,patient ovarian tumors [8]; initial Cmedium 120 nM,84.5 ± 7.3%
same,Steady state Cmedium,patient ovarian tumors [8]; initial Cmedium 120 nM,86.4 ± 2.3 nM
same,Steady state Ctumor,patient ovarian tumors [8]; initial Cmedium 120 nM,2.86 ± 1.28 :M
same,Mass balance,"patient ovarian tumors [8]; initial Cmedium 1,200 nM",85.2 ± 2.5%
same,Steady state Cmedium,"patient ovarian tumors [8]; initial Cmedium 1,200 nM",870 ± 2.6 nM
same,Steady state Ctumor,"patient ovarian tumors [8]; initial Cmedium 1,200 nM",30.1 ± 11.7 :M
same,Mass balance,"patient ovarian tumors [8]; initial Cmedium 12,000 nM",93.3 ± 4.5%
same,Steady state Cmedium,"patient ovarian tumors [8]; initial Cmedium 12,000 nM","10,500 ± 920 nM"
same,Steady state Ctumor,"patient ovarian tumors [8]; initial Cmedium 12,000 nM",211 ± 80 :M
same,Apoptotic fraction,MAT-LyLu prostate tumor; [15],14.5 ± 2.5^b %
same,Cell density,MAT-LyLu prostate tumor; [15],83 ± 4.69^b
same,Plasma conc. at end of Tx,MAT-LyLu prostate tumor; [15],1.42 ± 0.11 :g/ml
same,Tumor conc. at specified time,"MAT-LyLu prostate tumor; Group 1: 5 mg/kg/hr x 1 hr, then 0.83 x 6 hr at 24 hr, total 10 mg/kg, at 30 hr",3.94 ± 0.35 :g/g
same,higher tumor concentration in Group 1 than sum of Group 2 at 24 hr and Group 3 at 6 hr,MAT-LyLu prostate tumor; Group 1 at 30 hr,50%
same,Plasma conc. at end of Tx,"MAT-LyLu prostate tumor; Group 2A: 5 mg/kg/hr x 1 hr at 0 hr, total 5 mg/kg",6.01 ± 0.64 :g/ml
same,Apoptotic fraction,MAT-LyLu prostate tumor; [16],1.5 ± 0.9%
same,Cell density,MAT-LyLu prostate tumor; [16],120 ± 4.35
same,Tumor conc. at specified time,MAT-LyLu prostate tumor; [16],2.76 ± 0.57 :g/g
same,Apoptotic fraction,MAT-LyLu prostate tumor; [17],11.2 ± 2.3^c %
same,Cell density,MAT-LyLu prostate tumor; [17],85 ± 4.52
same,Tumor conc. at specified time,MAT-LyLu prostate tumor; [17],<0.35 at :g/g
same,Apoptotic fraction,MAT-LyLu prostate tumor; [18],3.5 ± 1.5%
same,Cell density,MAT-LyLu prostate tumor; [18],112 ± 6.08
same,Plasma conc. at end of Tx,MAT-LyLu prostate tumor; [18],1.31 ± 0.12 :g/ml
same,Tumor conc. at specified time,"MAT-LyLu prostate tumor; Group 3: 0.83 mg/kg/hr x 6 hr at 0 hr, total 5 mg/kg, at 6 hr",2.26 ± 0.13 :g/g
same,Apoptotic fraction,MAT-LyLu prostate tumor; [19],5.8 ± 2.2%
same,Cell density,MAT-LyLu prostate tumor; [19],108 ± 5.78
same,Plasma conc. at end of Tx,MAT-LyLu prostate tumor; [19],2.98 ± 0.60 :g/ml
same,Tumor conc. at specified time,"MAT-LyLu prostate tumor; Group 4: 5 mg/kg/hr x 1 hr at 0 hr + 0.83 x 6 hr at 1.2 hr, total 10 mg/kg, at 7.2 hr",3.24 ± 0.31 :g/g
same,Apoptotic fraction,MAT-LyLu prostate tumor; [20],6.5 ± 1.6%
same,Cell density,MAT-LyLu prostate tumor; [20],115 ± 5.18
same,Plasma conc. at end of Tx,MAT-LyLu prostate tumor; [20],1.50 ± 0.06 :g/ml
same,Tumor conc. at specified time,"MAT-LyLu prostate tumor; Group 5: 0.83 mg/kg/hr x 12 hr, total 10 mg/kg, at 12 hr",2.95 ± 0.34 :g/g
same,higher cell (density) in Group 5 compared to Group 1,MAT-LyLu prostate tumor; end of treatment,25%
same,higher cell density in Group 4 compared to Group 1,MAT-LyLu prostate tumor; end of treatment,30%
same,lower apoptosis in Group 4 compared to Group 1,MAT-LyLu prostate tumor; end of treatment,60%
same,lower apoptosis in Group 5 compared to Group 1,MAT-LyLu prostate tumor; end of treatment,35%
same,lower drug concentration in Group 4 compared to Group 1,MAT-LyLu prostate tumor; end of treatment,18%
same,lower drug concentration in Group 5 at 12 hr than Group 1 at 30 hr,"MAT-LyLu prostate tumor; rat, in vivo",25%
same,difference between plasma concentrations at end of 6 and 12 hr infusions,MAT-LyLu prostate tumor; rats,13%
same,half-life,"[9]; plasma, rats, intravenous infusion, read-out: major half-life (converted)",1.1 h
same,Kp,"[9]; 5 mg/kg, Group 2A: 5 mg/kg/hr x 1 hr at 0 hr, total 5 mg/kg",0.46 ± 0.09
same,Kp,"[9]; 5 mg/kg, Group 3: 0.83 mg/kg/hr x 6 hr at 0 hr, total 5 mg/kg",1.73 ± 0.18
same,Kp,"[9]; 10 mg/kg, Group 1: 5 mg/kg/hr x 1 hr, then 0.83 x 6 hr at 24 hr, total 10 mg/kg",2.8 ± 0.28
same,Kp,"[9]; 10 mg/kg, Group 4: 5 mg/kg/hr x 1 hr at 0 hr + 0.83 x 6 hr at 1.2 hr, total 10 mg/kg",1.2 ± 0.3
same,Kp,"[9]; 10 mg/kg, Group 5: 0.83 mg/kg/hr x 12 hr, total 10 mg/kg",1.98 ± 0.23
